3 compounds from patent US12447238B2, “Antimicrobial tubular conduits” (SANIDRINK S.R.L., priority 2020, dated 2025) can be followed below.

What is called IC50 is the concentration that inhibits the measured activity by half. Higher therefore signals weaker potency. Usually MBC stands for the smallest concentration meeting the test's criterion for killing. A higher MBC goes with less potent killing.

Values after ≈ are worked out from the molar mass of the structure shown. Peptide text beside a SMILES is read from it.

In one experiment the test system is Listeria. In words: Bactericidal activity of AMP peptides at 15 μM (CFU vs control), Listeria. Format: cell-based. The settings on record: peptide 15 μM. As to the method: (§1) The bactericidal activity of further AMP peptides used in the invention, in particular of the RiLK31 peptide (RLRWVKIWKK, SEQ ID NO:31) and the RiLK3 peptide (RLRWVRIWRR, SEQ ID NO:3), was tested. The bactericidal activity was expressed as a percentage of viable cells in terms of CFU (Colony Forming Units) in a bacterial sample exposed to each peptide compared to those in a control bacterial sample in the absence of the peptide. All tests were carried out with the same peptide concentration, corresponding to 15 μM.

A further experiment concerns Salmonella. Briefly: Bactericidal activity of AMP peptides at 15 μM (CFU vs control), Salmonella. It counts as cell-based. The note with it: peptide 15 μM. As to the method: as §1
A further experiment concerns E. coli. In words: Bactericidal activity of AMP peptides at 15 μM (CFU vs control), E. coli. Format: cell-based. The note with it: peptide 15 μM. As to the method: as §1
Another experiment deals with Staphylococcus. In words: Bactericidal activity of AMP peptides at 15 μM (CFU vs control), Staphylococcus. Format: cell-based. The settings on record: peptide 15 μM. As to the method:
as §1

For experiment [1], the system named is L. monocytogenes (LM2) (field strain). In words: IC50 by broth microdilution and plate count against L. monocytogenes. Format: cell-based, Listeria monocytogenes. The settings on record: 6 hours at 37° C. in Fraser Broth, plate count. As to the method:
(§2) The bactericidal activity of RiLK1 peptides was assessed against both Gram positive (Listeria monocytogenes LM2 and Staphylococcus aureus) and Gram negative (Salmonella typhimurium and Escherichia coli) pathogenic bacteria.
(§3) The assessment of the concentration of RiLK1 peptides capable of inhibiting 50% of bacterial growth (IC50) was performed by the broth microdilution assay as described in Wang HX and Ng TB (2003, Peptides 24:969-972).
(§4) Standard deviations were obtained from triplicate experiments for each peptide dilution, and the IC50s were determined using GraphPad Prism version 6.00 (Graph-Pad Software, La Jolla California USA).
(§5) All bactericidal activity assays were performed using 2-3 log CFUs (Colony Forming Units), which represents a realistic approximation of the contamination levels that may be contained in the tubular conduits for food or medical use.
All experimental conditions investigated used the plate count method to estimate the bactericidal activity of the peptides. Specifically, the numbers of colonies grown on agar plates seeded with the bacterial suspensions in the absence or presence of the individual peptide dilutions were counted and compared. Standard deviations were determined using statistical software. […]
(In general: Dilution methods test growth across graded concentrations, often in twofold steps.)

The test system is the same in experiment [2]. Briefly: Minimum Bactericidal Concentration (MBC) against L. monocytogenes. The note with it: 99.9% inhibition of bacterial growth on plates. Format: cell-based, Listeria monocytogenes. As to the method: (§6) The evaluation of the Minimum Bactericidal Concentration (MBC), i.e., the lowest concentration of antimicrobial agent capable of 99.9% inhibition of bacterial growth on plates, was carried out as described in Bilikova et al, (2015, Peptides 68:190-196).

For experiment [3], the system named is Candida albicans (ATCC 14053). It counts as cell-based. As to the method: The inhibitory activity of the RiLK1 peptide was determined against the yeast Candida albicans. A stock culture was prepared in which 10^5 CFUs of C. albicans were inoculated in 10 ml of buffered peptone water. A reference strain (ATCC 14053) was used for this species. The culture was incubated for 6 h at 37° C. with the RiLK1 peptide at 25 μM concentrations. At the same time, control samples were incubated without adding the peptide. 100 μl of the samples thus prepared were seeded on DG18 plates (Dichloran 18% Glycerol Agar—ISO 21527-2) and incubated at 25° C. for 7 days.
(§7) All experimental conditions investigated used the plate count method to estimate the antimycotic activity of the peptide. Specifically, the numbers of colonies grown on agar plates seeded with the cultures in the absence or presence of the individual peptide dilutions were counted and compared. The standard deviations of the triplicate incubations of each plate were determined using statistical software. The evaluation of the Minimum Fungicidal Concentration (MFC), i.e., the lowest concentration of antifungal agent capable of 99.9% inhibition of fungal growth on plates, was carried out as described in Bilikova et al, (2015, Peptides 68:190-196).

The subject of experiment [4] is Aspergillus brasiliensis (ATCC 9341). It counts as cell-based. As to the method: The antifungal activity of the RiLK1 peptide was determined against Aspergillus brasiliensis. For this purpose, a stock culture was prepared in which 10^5 CFUs of A. brasiliensis were inoculated in 10 ml of buffered peptone water. A reference strain (ATCC 9341) was used for this fungal species. The culture was incubated for 6 h at 37° C. with the RiLK1 peptide at 25 μM concentrations.
At the same time, control samples were incubated without adding the peptide. 100 μl of the samples thus prepared were seeded on DG18 plates (Dichloran 18% Glycerol Agar—ISO 21527-2) and incubated at 25° C. for 7 days.
as §7, with “fungicidal” for “antimycotic”, “fungal suspensions” for “cultures”

The test system of experiment [5] is E. coli (ATCC). It counts as cell-based, Escherichia coli. The note with it: 6 h. As to the method: as §2, §3, §4, §5
All experimental conditions investigated used the plate count method to estimate the bactericidal activity of the peptides. Specifically, the numbers of colonies grown on agar plates seeded with the bacterial suspensions in the absence or presence of the individual peptide dilutions were counted and compared. Standard deviations were determined using statistical software.
A control stock suspension was prepared in which 10^3 CFUs of E. coli were inoculated in 10 ml of BPW (Oxoid, Basingstoke, UK). […]

Experiment [6] deals with E. coli (ATCC). In words: Minimum Bactericidal Concentration (MBC) against E. coli. Format: cell-based, Escherichia coli. The settings on record: 99.9% inhibition of bacterial growth on plates. As to the method:
as §6

Turning to RLRWVKIWKK (AMP) [RiLK31], the “bactericidal activity expressed as a percentage of viable cells (CFU) vs control” value in the experiment on Listeria is reported as 98.8%; in the experiment with Salmonella, 100%; with E. coli it was 100%; with Staphylococcus, 83%.

On to `CC[C@H](C)[C@H](NC(=O)[C@H](CCCNC(=N)N)NC(=O)[C@@H](NC(=O)[C@H](Cc1c[nH]c2ccccc12)NC(=O)[C@H](CCCCN)NC(=O)[C@H](CC(C)C)NC(=O)[C@@H](N)CCCNC(=N)N)C(C)C)C(=O)N[C@@H](Cc1c[nH]c2ccccc12)C(=O)N[C@@H](CCCNC(=N)N)C(=O)N[C@@H](CCCNC(=N)N)C(N)=O` [RiLK1, RLKWVRIWRR] (H-RLKWVRIWRR-NH2; N-terminus assumed), for which the concentration for half-maximal inhibition (IC50) in experiment [1] amounted to 460 nM; with E. coli (ATCC) [5], 1200 nM. Further, the minimum bactericidal concentration (MBC) (in [2]; in the experiment with E. coli (ATCC) [6]) was 2 µM (≈ 2.94 µg/mL) in each case. Besides, the “bactericidal activity expressed as a percentage of viable cells (CFU) vs control” value in the experiment with Listeria is 99.5%; in the experiment on Salmonella it was 100%; in the experiment with E. coli it was 100%; in the experiment with Staphylococcus, 96.9%. The MFC result in experiment [3] (ATCC 14053, 6 h) is on record as “less than or equal to 25 μM”; in [4] (ATCC 9341, 6 h), “less than or equal to 25 μM”. The “post-treatment decrease in the fungal load” value in experiment [3] (C. albicans, 25 μM peptide, 6 h at 37° C.) amounted to 5 Log; in experiment [4] (A. brasiliensis, 25 μM peptide, 6 h at 37° C.) it was 5 Log. Besides, the “Drop Log CFU/ml” value in experiment [3] (C. albicans, 10^5 CFUs, 25 μM peptide, 6 h at 37° C.) is listed as 5 Log CFU/ml; in experiment [4] (A. brasiliensis, 10^5 CFUs, 25 μM peptide, 6 h at 37° C.) it was 5 Log CFU/ml.

For RLRWVRIWRR (AMP) [RiLK3], the “bactericidal activity expressed as a percentage of viable cells (CFU) vs control” value with Listeria worked out at 99%; in the experiment on Salmonella, 100%; with E. coli, 100%; in the experiment on Staphylococcus, 96%.
